Among the test systems are 786-0 renal; A498 renal; COLO 205 colon; MDA-MB-435; NCI-H460 lung; RXF 393 renal; SK-MEL-2 melanoma; SK-OV-3 ovarian; TK-10 renal; HCC-2998 colon.
Holding throughout (experiment): growth of human tumour cells (NCI), 48 h

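Interpolation was linear, between the two tested concentrations surrounding the appropriate level; five concentrations were tested over 48 hours in 96-well plates. GI50 is the concentration that inhibits growth by half. TGI: total growth inhibition.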

Consider `COc1cc2nc(-c3cccs3)oc(=O)c2cc1OC`, for which the TGI with 786-0 renal, in the experiment with A498 renal, in the experiment on COLO 205 colon, in the experiment on MDA-MB-435, in the experiment on NCI-H460 lung and with RXF 393 renal was > 100 µM each time. In addition, the TGI with SK-MEL-2 melanoma, with SK-OV-3 ovarian and with TK-10 renal was > 100 µM each time.
For `C(=Nc1ccc(-c2nc3ccccc3o2)cc1)c1ccco1`, the TGI with 786-0 renal was > 100 µM; with A498 renal, 95 µM; with COLO 205 colon, > 100 µM; in the experiment on MDA-MB-435, > 100 µM; in the experiment with RXF 393 renal it was > 100 µM; in the experiment with SK-MEL-2 melanoma, > 100 µM.
Regarding `CC(=O)O/N=C/c1c2ccccc2cc2ccccc12`, the TGI with A498 renal is > 100 µM; in the experiment with COLO 205 colon it was > 100 µM; in the experiment on MDA-MB-435, > 100 µM; in the experiment on NCI-H460 lung, > 100 µM; with RXF 393 renal it was 86.2 µM; with SK-OV-3 ovarian, 69.6 µM. Also, in the experiment on TK-10 renal, the TGI is > 100 µM.
Take `COc1cc2cc(Oc3ccc(NC(=O)c4cc(C(F)(F)F)cc(C(F)(F)F)c4)cc3)c(C)nc2cc1OC`: the GI50 with A498 renal was 1.13 µM; with COLO 205 colon it was 3.05 µM; in the experiment with HCC-2998 colon it was > 50 µM; in the experiment on MDA-MB-435, > 50 µM; with NCI-H460 lung, 2.16 µM; in the experiment on RXF 393 renal, 2.93 µM. Besides, the GI50 in the experiment with SK-MEL-2 melanoma is 15.8 µM; in the experiment with SK-OV-3 ovarian, > 50 µM; with TK-10 renal, 3.82 µM. Also, the TGI in the experiment on A498 renal, in the experiment with COLO 205 colon, with HCC-2998 colon, in the experiment on MDA-MB-435, in the experiment with NCI-H460 lung and in the experiment with RXF 393 renal was > 50 µM throughout. Moreover, the TGI in the experiment with SK-MEL-2 melanoma, in the experiment on SK-OV-3 ovarian and in the experiment on TK-10 renal was > 50 µM in each case.
`CC(C)=CCC/C(C)=C/COC(C)(C)C1=CCC(C)CC1` (stereo not drawn) (tested in a mixture with another compound): the TGI in the experiment with 786-0 renal, in the experiment with A498 renal, in the experiment on COLO 205 colon, with HCC-2998 colon, in the experiment with MDA-MB-435 and with NCI-H460 lung was > 100 µM each time. For the same compound, the TGI with RXF 393 renal, in the experiment on SK-OV-3 ovarian and in the experiment with TK-10 renal was > 100 µM in each case.
For `CC(=O)c1cccn1/C=C(\OC(=O)OC(C)(C)C)c1ccc[nH]1`, the TGI in the experiment on 786-0 renal, with A498 renal, with COLO 205 colon, with HCC-2998 colon, in the experiment on MDA-MB-435 and in the experiment on NCI-H460 lung was > 100 µM each time. In addition, the TGI with RXF 393 renal, with SK-MEL-2 melanoma and with TK-10 renal was > 100 µM in each case.
On to `Oc1[nH]c2ccc(Br)cc2c1N=NC(=S)Nc1ccc(F)cc1`, for which the TGI in the experiment with 786-0 renal was found to be 22.4 µM; in the experiment on A498 renal, 8.76 µM; with COLO 205 colon, 22.4 µM; with MDA-MB-435, 13.6 µM; in the experiment with NCI-H460 lung it was 15.3 µM; with RXF 393 renal it was 13.2 µM. The values for the TGI with SK-MEL-2 melanoma, with SK-OV-3 ovarian and in the experiment on TK-10 renal were 25.9 µM, 33.4 µM and 23.8 µM, respectively.
In the case of `C=CCNC(=S)N=Nc1c(O)[nH]c2ccc([N+](=O)[O-])cc12`, the TGI in the experiment on A498 renal was 91.7 µM; with COLO 205 colon it was > 100 µM; with HCC-2998 colon, > 100 µM; in the experiment on MDA-MB-435, > 100 µM; in the experiment on NCI-H460 lung, > 100 µM; in the experiment with RXF 393 renal it was 73.3 µM. For the same compound, the TGI in the experiment on SK-MEL-2 melanoma, with SK-OV-3 ovarian and with TK-10 renal was > 100 µM throughout.
For the compound `Cc1cn(-c2cc(C(=O)Nc3cccc(-n4ccc5c(NC(=O)c6ccccc6)nccc54)c3)cc(C(F)(F)F)c2)cn1`, the GI50 in the experiment on A498 renal was 0.223 µM; in the experiment on COLO 205 colon, 0.525 µM; with HCC-2998 colon it was 0.862 µM; in the experiment on MDA-MB-435, 0.217 µM; in the experiment with NCI-H460 lung it was 0.29 µM; with RXF 393 renal it was 0.202 µM. For the same compound, the GI50 with SK-MEL-2 melanoma is 0.342 µM; with SK-OV-3 ovarian it was 0.325 µM; with TK-10 renal, 0.855 µM. Moreover, the TGI in the experiment with A498 renal amounted to 1.71 µM; with COLO 205 colon, 1.71 µM; in the experiment with HCC-2998 colon, 4.79 µM; in the experiment on MDA-MB-435, 0.635 µM; with NCI-H460 lung, 1.2 µM; in the experiment with RXF 393 renal, 0.535 µM. Besides, the TGI in the experiment with SK-MEL-2 melanoma came out at 11.9 µM; in the experiment with SK-OV-3 ovarian, 3.53 µM; in the experiment with TK-10 renal it was 5.27 µM.
`NCCCN1CCN(CCCNc2ccc3nnn4c5ccccc5c(=O)c2c34)CC1`: the TGI stood at 33.1 µM in the experiment with 786-0 renal; 40.6 µM in the experiment on A498 renal; 19.4 µM with COLO 205 colon; 29.4 µM in the experiment with HCC-2998 colon; 60.1 µM with MDA-MB-435; 58.1 µM in the experiment on NCI-H460 lung. Also, the TGI in the experiment with SK-MEL-2 melanoma was 36.1 µM; in the experiment on SK-OV-3 ovarian, > 100 µM; in the experiment with TK-10 renal, > 100 µM.
Regarding `CC(=O)O[C@H]1C(=O)[C@@]2(C)[C@H]([C@H](OC(=O)c3ccc(F)cc3)[C@]3(O)C[C@H](OC(=O)[C@H](O)[C@@H](NC(=O)c4ccccc4)c4ccccc4)C(C)=C1C3(C)C)[C@]1(OC(C)=O)CO[C@@H]1C[C@@H]2O`, the TGI was > 25 µM with 786-0 renal; > 6.73 µM in the experiment on A498 renal; > 25 µM in the experiment on COLO 205 colon; 0.174 µM in the experiment with HCC-2998 colon; 0.0049 µM in the experiment with MDA-MB-435; 0.902 µM in the experiment with RXF 393 renal. Besides, the TGI with SK-MEL-2 melanoma was 9.73 µM; in the experiment on TK-10 renal, > 16.1 µM.
`CC(C)(C)OC(=O)NCCC(N)=S`: the TGI with 786-0 renal, in the experiment on A498 renal, with COLO 205 colon, in the experiment on MDA-MB-435, in the experiment with NCI-H460 lung and in the experiment with RXF 393 renal was > 100 µM each time. Besides, the TGI in the experiment with SK-OV-3 ovarian and with TK-10 renal was > 100 µM in each case.
As for `COc1nc2ncc([C@@H](OC(C)=O)[C@@H](COC(C)=O)OC(C)=O)nc2c(=O)[nH]1`, the TGI in the experiment on 786-0 renal, in the experiment on A498 renal, in the experiment with COLO 205 colon, with MDA-MB-435, in the experiment with NCI-H460 lung and in the experiment with RXF 393 renal was > 100 µM throughout. In addition, the TGI in the experiment on SK-MEL-2 melanoma, in the experiment on SK-OV-3 ovarian and with TK-10 renal was > 100 µM throughout.

Source of the values: PubChem BioAssay (NCI).
